For one assay, the system named is Staphylococcus aureus. As to the kind of experiment: Antibacterial activity against Staphylococcus aureus MRSA ATCC 43300; Growth inhibition at 32 ug/mL in CAMBH media using NBS plates. It is filed as functional, ATCC 43300; MRSA. The following applies: ASSAY_TEST Inhibition of Bacterial Growth, CONC 32 ug.mL-1, detection method Absorption (OD600), MEDIA CAMHB, plate type NBS, 384well, time 18 hr.

The test system of the next assay is Escherichia coli. As to the kind of experiment: Antibacterial activity against Escherichia coli ATCC 25922; Growth inhibition at 32 ug/mL in CAMBH media using NBS plates. It is filed as functional, ATCC 25922; Type strain. The following applies: Type strain, ASSAY_TEST Inhibition of Bacterial Growth, CONC 32 ug.mL-1, detection method Absorption (OD600), MEDIA CAMHB, plate type NBS, 384well, time 18 hr.

For a further assay, the system named is Klebsiella pneumoniae. As to the kind of experiment: Antibacterial activity against Klebsiella pneumoniae MDR ATCC 70063; Growth inhibition at 32 ug/mL in CAMBH media using NBS plates. The format is functional, ATCC 700603; MDR. The following applies: ATCC 700603, ASSAY_TEST Inhibition of Bacterial Growth, CONC 32 ug.mL-1, detection method Absorption (OD600), MEDIA CAMHB, plate type NBS, 384well, time 18 hr.

In the next assay the test system is Pseudomonas aeruginosa. As to the kind of experiment: Antibacterial activity against Pseudomonas aeruginosa ATCC 27853; Growth inhibition at 32 ug/mL in CAMBH media using NBS plates. The format is functional, ATCC 27853; Type strain. The conditions noted are these: Type strain, ASSAY_TEST Inhibition of Bacterial Growth, CONC 32 ug.mL-1, detection method Absorption (OD600), MEDIA CAMHB, plate type NBS, 384well, time 18 hr.

In a further assay the test system is Acinetobacter baumannii. Description: Antibacterial activity against Acinetobacter baumannii ATCC 19606; Growth inhibition at 32 ug/mL in CAMBH media using NBS plates. It is filed as functional, ATCC 19606; Type strain. The conditions noted are these: Type strain, ASSAY_TEST Inhibition of Bacterial Growth, CONC 32 ug.mL-1, detection method Absorption (OD600), MEDIA CAMHB, plate type NBS, 384well, time 18 hr.

For another assay, the system named is Candida albicans. Description: Antifungal activity against Candida albicans ATCC 90028; Growth inhibition at 32 ug/mL in YNB media using NBS plates. The following applies: CLSI reference, ASSAY_TEST Inhibition of Fungal Growth, CONC 32 ug.mL-1, detection method Absorption (OD600), plate type NBS, 384well, time 18 hr. It is filed as functional, ATCC 90028; CLSI reference.

For a further assay, the system named is Cryptococcus neoformans. Description: Antifungal activity against Cryptococcus neoformans H99 ATCC 208821; Growth inhibition at 32 ug/mL in YNB media using NBS plates. The format is functional, ATCC 208821; H99 Type strain. The following applies: H99 Type strain, ASSAY_TEST Inhibition of Fungal Growth, CONC 32 ug.mL-1, detection method Resazurin, Absorption (OD600-OD570), plate type NBS, 384well, time 18 hr. (The colour change of resazurin is a common sign of viable cells or microbes.)

In the case of `c1cc2c(s1)CCOC21CCN(Cc2ccc3c(c2)OCCO3)CC1`, the inhibition (in general, the relative decrease from the control value, in per cent) at 32 µg/mL worked out at 17.4% with Staphylococcus aureus; 16.1% in the assay with Escherichia coli; 19.3% with Klebsiella pneumoniae; 8.6% in the assay on Pseudomonas aeruginosa; 10.2% in the assay with Acinetobacter baumannii; 1% in the assay on Candida albicans. Besides, the inhibition at 32 µg/mL with Cryptococcus neoformans was -5.8%.
For the compound `Cc1cc(/C=C2\S/C(=N\c3ccccc3)NC2=O)c(C)n1-c1ccc(C(F)(F)F)cc1`, the inhibition at 32 µg/mL worked out at 17.9% in the assay with Staphylococcus aureus; 6.8% in the assay with Escherichia coli; 6.7% in the assay with Klebsiella pneumoniae; 7.3% in the assay with Pseudomonas aeruginosa; 9.1% in the assay with Acinetobacter baumannii; 9.8% in the assay on Candida albicans. The inhibition at 32 µg/mL in the assay on Cryptococcus neoformans is -1.7%.
Take `c1ccc(CN2CCC3(CC2)OCCc2ccsc23)cc1`: the inhibition at 32 µg/mL is 17.1% with Staphylococcus aureus; 17.1% in the assay with Escherichia coli; 8.6% in the assay on Klebsiella pneumoniae; 11.9% with Pseudomonas aeruginosa; 9.8% with Acinetobacter baumannii; 3.6% in the assay with Candida albicans. Further, the inhibition at 32 µg/mL in the assay on Cryptococcus neoformans is -4%.
Take `c1ccc(CN2CCC3(CC2)OCCc2cc(-c4ccccc4)sc23)cc1`: the inhibition at 32 µg/mL with Staphylococcus aureus was 18.9%; in the assay with Escherichia coli, 14.3%; in the assay on Klebsiella pneumoniae, 12.4%; with Pseudomonas aeruginosa, -1.5%; with Acinetobacter baumannii, 6.6%; in the assay on Candida albicans it was 9.1%. The inhibition at 32 µg/mL with Cryptococcus neoformans was -0.6%.
Consider `CC(C)C[C@H](NC(=O)[C@H](CCCCN)NC(=O)Cn1cc(CN2CCCNCCNCCCNCC2)nn1)C(=O)N[C@H](C(=O)N[C@@H](Cc1ccccc1)C(=O)N[C@@H](Cc1ccccc1)C(=O)O)C(C)C`, for which the inhibition at 32 µg/mL in the assay on Staphylococcus aureus is 16.9%; with Escherichia coli, 21.4%; in the assay with Klebsiella pneumoniae, 6%; in the assay on Pseudomonas aeruginosa, 5%; in the assay with Acinetobacter baumannii, 13.1%; in the assay with Candida albicans it was 1.3%. Besides, the inhibition at 32 µg/mL with Cryptococcus neoformans is -3.4%.
For the compound `COc1ccc(-n2c(C)cc(/C=C3\S/C(=N\c4ccccc4)NC3=O)c2C)cc1`, the inhibition at 32 µg/mL is 10.6% in the assay on Staphylococcus aureus; 2.8% in the assay on Escherichia coli; -1.1% in the assay on Klebsiella pneumoniae; -4.2% with Pseudomonas aeruginosa; -2.8% in the assay with Acinetobacter baumannii; 7.8% in the assay on Candida albicans. Further, the inhibition at 32 µg/mL in the assay on Cryptococcus neoformans was -4.3%.
As for `Clc1ccccc1-c1nnc2cncc(OCCc3ccccc3)n12`, the inhibition at 32 µg/mL was determined as 15.3% in the assay with Staphylococcus aureus; 17.8% in the assay with Escherichia coli; 6.2% in the assay on Klebsiella pneumoniae; 14.7% in the assay with Pseudomonas aeruginosa; 5.2% with Acinetobacter baumannii; 1.8% in the assay with Candida albicans. For the same compound, the inhibition at 32 µg/mL with Cryptococcus neoformans is -5.6%.
As for `Nc1ncnc2cc(-c3ccc(C(=O)N4CCOCC4)cc3)sc12`, the inhibition at 32 µg/mL was 22.2% in the assay on Staphylococcus aureus; 8.6% in the assay on Escherichia coli; 5.4% in the assay with Klebsiella pneumoniae; 2.4% in the assay on Pseudomonas aeruginosa; 8.3% in the assay on Acinetobacter baumannii; 1% in the assay with Candida albicans. The inhibition at 32 µg/mL in the assay with Cryptococcus neoformans was -1.2%.
For `O=C(CCCC[C@@H]1SC[C@@H]2NC(=O)N[C@@H]21)NCCCn1cc(CN2CCCNCCNCCCNCC2)nn1`, the inhibition at 32 µg/mL in the assay with Staphylococcus aureus was determined as 19.4%; in the assay on Escherichia coli, 15.2%; in the assay with Klebsiella pneumoniae, 12.5%; in the assay on Pseudomonas aeruginosa, 10.9%; in the assay on Acinetobacter baumannii, 23%; with Candida albicans it was 2.8%. Further, the inhibition at 32 µg/mL in the assay with Cryptococcus neoformans was 41.9%.
In the case of `COc1ccc(-n2c(C)cc(/C=C3\S/C(=N\c4cccc(O)c4)NC3=O)c2C)cc1`, the inhibition at 32 µg/mL is 8.9% in the assay on Staphylococcus aureus; 2.1% in the assay with Escherichia coli; -1.3% with Klebsiella pneumoniae; -0.1% with Pseudomonas aeruginosa; -4.5% with Acinetobacter baumannii; 2.5% with Candida albicans. For the same compound, in the assay with Cryptococcus neoformans, the inhibition at 32 µg/mL was -6.8%.
In the case of `COc1cc2c(cc1OC)C1(CCN(Cc3ccccc3)CC1)OCC2`, the inhibition at 32 µg/mL turned out to be 16.9% in the assay on Staphylococcus aureus; 17.8% in the assay with Escherichia coli; 16.4% in the assay on Klebsiella pneumoniae; 23.6% in the assay with Pseudomonas aeruginosa; 7.9% in the assay on Acinetobacter baumannii; 2.2% with Candida albicans. The inhibition at 32 µg/mL in the assay on Cryptococcus neoformans was -8.2%.
`O=C(Nc1cccc(Cl)c1)c1cncc2nnc(-c3ccc(OC(F)(F)F)cc3)n12`: the inhibition at 32 µg/mL was 5.8% in the assay with Staphylococcus aureus; 3.5% in the assay with Escherichia coli; 1.6% in the assay with Klebsiella pneumoniae; 4% in the assay on Pseudomonas aeruginosa; -5.2% in the assay with Acinetobacter baumannii; 3.5% with Candida albicans. Moreover, the inhibition at 32 µg/mL with Cryptococcus neoformans is -2.8%.
Consider `O=C(Nc1cccc(Cl)c1F)c1cncc2nnc(-c3ccc(OC(F)F)cc3)n12`, for which the inhibition at 32 µg/mL in the assay on Staphylococcus aureus was 1.4%; in the assay with Escherichia coli it was -1.1%; with Klebsiella pneumoniae, -0.7%; in the assay on Pseudomonas aeruginosa, 1%; in the assay with Acinetobacter baumannii it was -9.8%; in the assay with Candida albicans, 1.1%. Further, the inhibition at 32 µg/mL in the assay on Cryptococcus neoformans is -7.5%.
On to `Cc1cc(C(=O)OCC(N)=O)c(C)n1-c1ccc(F)cc1`, for which the inhibition at 32 µg/mL in the assay on Staphylococcus aureus amounted to 24.9%; with Escherichia coli, 13.4%; in the assay with Klebsiella pneumoniae, 12.3%; in the assay on Pseudomonas aeruginosa, 6%; with Acinetobacter baumannii, 12.2%; with Candida albicans it was 7.5%. In addition, the inhibition at 32 µg/mL in the assay on Cryptococcus neoformans is -2.2%.
Turning to `Nc1ncnc2cc(-c3cccc(S(N)(=O)=O)c3)sc12`, the inhibition at 32 µg/mL with Staphylococcus aureus is 27.6%; in the assay with Escherichia coli, 17.9%; in the assay with Klebsiella pneumoniae, 9.5%; in the assay with Pseudomonas aeruginosa, 2.3%; in the assay on Acinetobacter baumannii, 7.5%; with Candida albicans it was 8.9%. For the same compound, the inhibition at 32 µg/mL in the assay on Cryptococcus neoformans was -4.6%.

These data come from ChEMBL document CHEMBL3832881, “CO-ADD antimicrobial screening data of OSM samples” (2017).
